{"source": "patent US6277364A", "about": "“Polyurethanes as topical skin protectants” (Bertek Pharmaceuticals, Inc., priority 1998, dated 2001)", "key": {"physchem": {"assay": "physchem", "conditions": "water"}, "[1]": {"conditions": "in vivo", "source_text": "In this example, the FTIR-ATR technique was used to assess the presence and amount of polyolprepolymer-2 (\"PP-2\") in the stratum corneum of two human subjects, in vivo.\nThe test solution contained 10 wt % PP-2 dissolved in ethanol/water (60:40 v/v). the control solution consisted only of ethanol/water (60:40 v/v). Webtril™ pads (12cm×2.5cm) were saturated either with test or control solution and were applied to the left and right forearms of two subjects, respectively. The pads were secured in place with Tegaderm 1626™ occlusive transparent dressing during the entire 3 hour exposure period. The skin surface of the dosing sites was lightly wiped with two cotton-tipped swabs following the exposure period. A total of 8 tape strippings were performed: 6 were done immediately and 2 were done 2 hours later. […]\nFTIR spectra of the stratum comeum was measured from the dosing site and compared with the FTIR spectra of PP-2. The ratio of PP-2 absorption at 1095 cm^-1 to stratum corneum absorption at 675 cm^-1 (R 1095/675) was determined to account for potential differences in degree of contact between the sample (forearm) and the ATR crystal. […]\nThe absorbance ratio, R 1095/675, of PP-2 was determined. The quantity εb was computed, based upon the known surface concentration of PP-2 and using Beer's Law (A=εbC). […]"}}}
{"molecule": "O=c1[nH]cc(F)c(=O)[nH]1", "note": "[5-FU, 5-fluorouracil]", "values": [{"measurement": "solubility", "setting": "physchem", "value": 10.2, "unit": "mg/mL"}]}
{"molecule": "poly[oxy(methyl-1,2-ethanediyl)], α-hydro-ω-hydroxy-, polymer with 1,1'-methylene-bis-[4-isocyanatocyclohexane] [PP-2]", "values": [{"measurement": "localization in skin", "setting": "[1]", "value": "localized in the stratum corneum"}]}
